Data as given in paper PMC5869712 (Scientific Reports, 2018).

Legend:
Format in all cases: biochemical
ALK = target: T1, ALK (Homo sapiens, UniProt Q9UM73); test: Eurofins Kinase Profiler panel; settings: read-out: % inhibition (1μM), DMSO control=100%, lower=stronger
T1 construct: purchased Eurofins KinaseProfiler (Eurofins Pharma Discovery Services UK, Dundee); JAK3 also ChemPartner

IR = target: T2, IR (Homo sapiens, UniProt P06213); test: Eurofins Kinase Profiler panel; settings: read-out: % inhibition (1μM), DMSO control=100%, lower=stronger
T2 construct: purchased Eurofins KinaseProfiler (Eurofins Pharma Discovery Services UK, Dundee); JAK3 also ChemPartner

BTK = target: T3, BTK (Homo sapiens, UniProt Q06187); test: Cys-containing kinase family panel (EurofinsCerep)
T3 construct: EurofinsCerep (contract assay service)

KDR = target: T4, KDR (Homo sapiens, UniProt P35968); test: Eurofins Kinase Profiler panel; settings: read-out: % inhibition (1μM), DMSO control=100%, lower=stronger
T4 construct: purchased Eurofins KinaseProfiler (Eurofins Pharma Discovery Services UK, Dundee); JAK3 also ChemPartner
T4 sequence (P35968 20-1356): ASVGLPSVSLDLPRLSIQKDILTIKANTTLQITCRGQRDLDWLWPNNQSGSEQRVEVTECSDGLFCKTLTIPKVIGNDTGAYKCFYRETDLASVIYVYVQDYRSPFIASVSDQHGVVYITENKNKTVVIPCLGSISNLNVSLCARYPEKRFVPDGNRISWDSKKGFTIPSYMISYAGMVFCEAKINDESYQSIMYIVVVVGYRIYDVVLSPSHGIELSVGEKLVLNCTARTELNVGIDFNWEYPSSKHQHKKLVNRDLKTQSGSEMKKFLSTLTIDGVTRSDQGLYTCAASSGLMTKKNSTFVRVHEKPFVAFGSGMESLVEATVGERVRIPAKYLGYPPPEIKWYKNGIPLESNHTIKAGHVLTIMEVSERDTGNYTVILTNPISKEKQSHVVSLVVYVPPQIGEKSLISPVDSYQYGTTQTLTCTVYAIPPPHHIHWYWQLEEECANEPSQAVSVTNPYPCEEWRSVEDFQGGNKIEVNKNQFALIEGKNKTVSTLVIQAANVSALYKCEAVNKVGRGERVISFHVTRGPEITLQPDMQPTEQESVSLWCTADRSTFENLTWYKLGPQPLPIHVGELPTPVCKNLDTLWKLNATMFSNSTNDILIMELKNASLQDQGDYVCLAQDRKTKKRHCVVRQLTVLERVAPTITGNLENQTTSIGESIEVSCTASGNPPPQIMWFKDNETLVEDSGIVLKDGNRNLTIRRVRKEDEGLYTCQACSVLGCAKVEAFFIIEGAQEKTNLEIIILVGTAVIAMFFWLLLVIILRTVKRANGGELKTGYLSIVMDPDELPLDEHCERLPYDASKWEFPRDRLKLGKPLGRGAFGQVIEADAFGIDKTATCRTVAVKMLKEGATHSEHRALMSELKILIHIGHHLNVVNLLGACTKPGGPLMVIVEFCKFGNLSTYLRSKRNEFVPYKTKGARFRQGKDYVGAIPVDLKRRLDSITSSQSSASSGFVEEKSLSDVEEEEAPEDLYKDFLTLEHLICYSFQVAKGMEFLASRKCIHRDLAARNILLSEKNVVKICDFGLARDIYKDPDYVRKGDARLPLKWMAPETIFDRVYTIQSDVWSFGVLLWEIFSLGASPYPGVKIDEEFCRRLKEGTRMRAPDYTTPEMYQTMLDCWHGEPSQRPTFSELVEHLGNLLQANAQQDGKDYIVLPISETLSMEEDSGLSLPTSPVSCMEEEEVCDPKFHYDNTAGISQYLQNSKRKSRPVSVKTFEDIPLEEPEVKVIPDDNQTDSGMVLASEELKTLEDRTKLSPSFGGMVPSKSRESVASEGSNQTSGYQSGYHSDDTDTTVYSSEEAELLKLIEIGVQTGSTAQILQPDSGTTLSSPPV

CLK2 = target: T5, CLK2 (Homo sapiens, UniProt P49760); test: Eurofins Kinase Profiler panel
T5 construct: Eurofins Pharma Discovery Services UK Limited (Kinase Profiler service)
T5 sequence (P49760 whole entry): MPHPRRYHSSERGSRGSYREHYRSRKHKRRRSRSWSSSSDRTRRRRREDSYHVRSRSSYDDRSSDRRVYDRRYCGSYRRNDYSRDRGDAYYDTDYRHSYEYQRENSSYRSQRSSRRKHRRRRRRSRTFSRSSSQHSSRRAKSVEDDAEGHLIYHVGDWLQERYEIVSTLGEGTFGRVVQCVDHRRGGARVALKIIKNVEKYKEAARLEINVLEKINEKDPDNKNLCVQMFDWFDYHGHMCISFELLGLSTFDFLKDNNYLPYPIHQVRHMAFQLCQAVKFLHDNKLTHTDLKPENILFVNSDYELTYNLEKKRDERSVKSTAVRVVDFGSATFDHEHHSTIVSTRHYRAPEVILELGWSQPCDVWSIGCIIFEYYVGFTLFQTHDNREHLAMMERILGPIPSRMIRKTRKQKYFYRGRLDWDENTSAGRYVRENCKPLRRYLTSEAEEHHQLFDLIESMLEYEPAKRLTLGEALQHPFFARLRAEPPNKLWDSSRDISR
Excerpt: (§1) The assay protocol guides are commercially available from ChemPartner.

Mer = target: T6, Mer (Homo sapiens, UniProt Q12866); test: Eurofins Kinase Profiler panel; settings: read-out: % inhibition (1μM), DMSO control=100%, lower=stronger
T6 construct: purchased Eurofins KinaseProfiler (Eurofins Pharma Discovery Services UK, Dundee); JAK3 also ChemPartner
Excerpt: as §1

DYRK1B = target: T7, DYRK1B (Homo sapiens, UniProt Q9Y463); test: Eurofins Kinase Profiler panel; settings: read-out: % inhibition (1μM), DMSO control=100%, lower=stronger
T7 construct: Eurofins Pharma Discovery Services UK Limited (Kinase Profiler service)
Excerpt: as §1

SAPK2b = target: T8, SAPK2b (Homo sapiens, UniProt Q15759); test: Eurofins Kinase Profiler panel; settings: read-out: % inhibition (1μM), DMSO control=100%, lower=stronger
T8 construct: purchased Eurofins KinaseProfiler (Eurofins Pharma Discovery Services UK, Dundee); JAK3 also ChemPartner
Excerpt: as §1

SAPK4 = target: T9, SAPK4 (Homo sapiens, UniProt O15264); test: Eurofins Kinase Profiler panel; settings: read-out: % inhibition (1μM), DMSO control=100%, lower=stronger
T9 construct: purchased Eurofins KinaseProfiler (Eurofins Pharma Discovery Services UK, Dundee); JAK3 also ChemPartner
Excerpt: as §1

Syk = target: T10, Syk (Homo sapiens, UniProt P43405); test: Eurofins Kinase Profiler panel; settings: read-out: % inhibition (1μM), DMSO control=100%, lower=stronger
T10 construct: Eurofins Pharma Discovery Services UK Limited (Kinase Profiler service)
Excerpt: as §1

Wee1 = target: T11, Wee1 (Homo sapiens, UniProt P30291); test: Eurofins Kinase Profiler panel; settings: read-out: % inhibition (1μM), DMSO control=100%, lower=stronger
T11 construct: purchased Eurofins Pharma Discovery Services UK Limited (Kinase Profiler screening platform)
T11 sequence (P30291 whole entry): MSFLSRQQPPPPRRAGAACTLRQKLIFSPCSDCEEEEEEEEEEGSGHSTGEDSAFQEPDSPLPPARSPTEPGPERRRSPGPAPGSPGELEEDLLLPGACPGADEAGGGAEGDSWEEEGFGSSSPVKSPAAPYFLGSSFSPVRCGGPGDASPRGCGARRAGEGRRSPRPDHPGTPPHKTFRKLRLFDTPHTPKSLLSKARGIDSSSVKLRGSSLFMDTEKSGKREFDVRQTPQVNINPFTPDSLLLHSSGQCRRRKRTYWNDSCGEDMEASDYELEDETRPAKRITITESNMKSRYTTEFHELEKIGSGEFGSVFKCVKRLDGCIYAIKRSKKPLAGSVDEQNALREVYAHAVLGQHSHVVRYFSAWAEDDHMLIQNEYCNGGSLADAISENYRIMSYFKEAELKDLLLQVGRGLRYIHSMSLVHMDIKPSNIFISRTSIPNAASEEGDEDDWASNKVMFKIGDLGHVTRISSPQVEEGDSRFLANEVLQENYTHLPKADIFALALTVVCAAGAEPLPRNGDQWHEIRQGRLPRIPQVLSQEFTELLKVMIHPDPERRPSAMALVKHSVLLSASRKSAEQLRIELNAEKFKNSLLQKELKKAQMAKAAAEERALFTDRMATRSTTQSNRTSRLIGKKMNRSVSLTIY
Excerpt: as §1

CDK9 = target: T12, CDK9 (Homo sapiens, UniProt P50750); test: Eurofins Kinase Profiler panel; settings: read-out: % inhibition (1μM), DMSO control=100%, lower=stronger
T12 construct: purchased Eurofins KinaseProfiler (Eurofins Pharma Discovery Services UK, Dundee); JAK3 also ChemPartner
Excerpt: as §1

TAO1 = target: T13, TAO1 (Homo sapiens, UniProt Q7L7X3); test: Eurofins Kinase Profiler panel; settings: read-out: % inhibition (1μM), DMSO control=100%, lower=stronger
T13 construct: Eurofins Pharma Discovery Services UK Limited (Kinase Profiler service)
Excerpt: as §1

Flt1 = target: T14, Flt1 (Homo sapiens, UniProt P17948); test: Eurofins Kinase Profiler panel; settings: read-out: % inhibition (1μM), DMSO control=100%, lower=stronger
T14 construct: purchased Eurofins Pharma Discovery Services UK Limited (Kinase Profiler screening platform)
Excerpt: as §1

CK1 = test: Eurofins Kinase Profiler panel; settings: read-out: % inhibition (1μM), DMSO control=100%, lower=stronger
Excerpt: as §1

Pim-2 = target: T15, Pim-2 (Homo sapiens, UniProt Q9P1W9); test: Eurofins Kinase Profiler panel; settings: read-out: % inhibition (1μM), DMSO control=100%, lower=stronger
T15 construct: purchased Eurofins KinaseProfiler (Eurofins Pharma Discovery Services UK, Dundee); JAK3 also ChemPartner
Excerpt: as §1

PDGFRα = target: T16, PDGFRα (Homo sapiens, UniProt P16234); test: Eurofins Kinase Profiler panel; settings: read-out: % inhibition (1μM), DMSO control=100%, lower=stronger
T16 construct: purchased Eurofins Pharma Discovery Services UK Limited (Kinase Profiler screening platform)
Excerpt: as §1

PKG1α = target: T17, PKG1α (Homo sapiens, UniProt Q13976); test: Eurofins Kinase Profiler panel
T17 construct: Eurofins Pharma Discovery Services UK Limited (Kinase Profiler service)
T17 sequence (Q13976 whole entry): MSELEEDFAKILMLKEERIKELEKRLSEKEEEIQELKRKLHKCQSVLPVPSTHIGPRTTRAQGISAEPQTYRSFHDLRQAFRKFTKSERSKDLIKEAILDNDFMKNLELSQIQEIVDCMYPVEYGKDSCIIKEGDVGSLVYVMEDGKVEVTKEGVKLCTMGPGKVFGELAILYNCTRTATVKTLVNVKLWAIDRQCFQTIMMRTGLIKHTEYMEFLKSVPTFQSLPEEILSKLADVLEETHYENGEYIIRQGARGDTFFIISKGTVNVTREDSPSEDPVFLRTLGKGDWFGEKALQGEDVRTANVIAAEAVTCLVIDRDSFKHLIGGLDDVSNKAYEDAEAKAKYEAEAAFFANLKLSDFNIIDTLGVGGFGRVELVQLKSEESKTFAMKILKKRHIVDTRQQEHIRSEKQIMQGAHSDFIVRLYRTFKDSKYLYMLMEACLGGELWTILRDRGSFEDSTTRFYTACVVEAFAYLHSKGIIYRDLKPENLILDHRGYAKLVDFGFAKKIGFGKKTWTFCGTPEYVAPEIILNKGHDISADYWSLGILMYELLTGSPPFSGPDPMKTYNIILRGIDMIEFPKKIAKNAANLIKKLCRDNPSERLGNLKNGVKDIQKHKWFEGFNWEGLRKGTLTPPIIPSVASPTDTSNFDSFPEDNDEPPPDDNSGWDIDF
Excerpt: as §1

ROCK-II = target: T18, ROCK-II (Homo sapiens, UniProt O75116); test: Eurofins Kinase Profiler panel; settings: read-out: % inhibition (1μM), DMSO control=100%, lower=stronger
T18 construct: purchased Eurofins KinaseProfiler (Eurofins Pharma Discovery Services UK, Dundee); JAK3 also ChemPartner
Excerpt: as §1

TrkA = target: T19, TrkA (Homo sapiens, UniProt P04629); test: Eurofins Kinase Profiler panel; settings: read-out: % inhibition (1μM), DMSO control=100%, lower=stronger
T19 construct: purchased Eurofins Pharma Discovery Services UK Limited (Kinase Profiler screening platform)
Excerpt: as §1

ROCK-I = target: T20, ROCK-I (Homo sapiens, UniProt Q13464); test: Eurofins Kinase Profiler panel; settings: read-out: % inhibition (1μM), DMSO control=100%, lower=stronger
T20 construct: purchased Eurofins KinaseProfiler (Eurofins Pharma Discovery Services UK, Dundee); JAK3 also ChemPartner
Excerpt: as §1

GSK3α = target: T21, GSK3α (Homo sapiens, UniProt P49840); test: Eurofins Kinase Profiler panel; settings: read-out: % inhibition (1μM), DMSO control=100%, lower=stronger
T21 construct: purchased Eurofins KinaseProfiler (Eurofins Pharma Discovery Services UK, Dundee); JAK3 also ChemPartner
Excerpt: as §1

CDK6 = target: T22, CDK6 (Homo sapiens, UniProt Q00534); test: Eurofins Kinase Profiler panel; settings: read-out: % inhibition (1μM), DMSO control=100%, lower=stronger
T22 construct: purchased Eurofins KinaseProfiler (Eurofins Pharma Discovery Services UK, Dundee); JAK3 also ChemPartner
T22 sequence (Q00534 whole entry): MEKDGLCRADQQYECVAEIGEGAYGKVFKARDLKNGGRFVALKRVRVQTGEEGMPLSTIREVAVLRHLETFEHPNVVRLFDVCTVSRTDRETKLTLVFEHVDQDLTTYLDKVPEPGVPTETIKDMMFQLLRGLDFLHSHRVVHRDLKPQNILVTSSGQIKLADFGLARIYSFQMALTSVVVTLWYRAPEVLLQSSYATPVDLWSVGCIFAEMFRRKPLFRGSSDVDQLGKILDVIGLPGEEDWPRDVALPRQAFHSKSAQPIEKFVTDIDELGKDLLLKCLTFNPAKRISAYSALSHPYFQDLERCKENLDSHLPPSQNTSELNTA
T22 sequence (P30281 whole entry partner): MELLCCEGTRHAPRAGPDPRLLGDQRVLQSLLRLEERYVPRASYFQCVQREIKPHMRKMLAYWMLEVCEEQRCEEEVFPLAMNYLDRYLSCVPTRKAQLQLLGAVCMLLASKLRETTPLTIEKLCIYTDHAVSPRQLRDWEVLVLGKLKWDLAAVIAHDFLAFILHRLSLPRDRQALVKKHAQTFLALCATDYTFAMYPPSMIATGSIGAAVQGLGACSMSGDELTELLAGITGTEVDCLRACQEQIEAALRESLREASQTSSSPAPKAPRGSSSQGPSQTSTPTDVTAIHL
Excerpt: as §1

TrkC = target: T23, TrkC (Homo sapiens, UniProt Q16288); test: Eurofins Kinase Profiler panel; settings: read-out: % inhibition (1μM), DMSO control=100%, lower=stronger
T23 construct: purchased Eurofins Pharma Discovery Services UK Limited (Kinase Profiler screening platform)
Excerpt: as §1

TrkB = target: T24, TrkB (Homo sapiens, UniProt Q16620); test: Eurofins Kinase Profiler panel; settings: read-out: % inhibition (1μM), DMSO control=100%, lower=stronger
T24 construct: purchased Eurofins Pharma Discovery Services UK Limited (Kinase Profiler screening platform)
T24 sequence (Q16620 32-822): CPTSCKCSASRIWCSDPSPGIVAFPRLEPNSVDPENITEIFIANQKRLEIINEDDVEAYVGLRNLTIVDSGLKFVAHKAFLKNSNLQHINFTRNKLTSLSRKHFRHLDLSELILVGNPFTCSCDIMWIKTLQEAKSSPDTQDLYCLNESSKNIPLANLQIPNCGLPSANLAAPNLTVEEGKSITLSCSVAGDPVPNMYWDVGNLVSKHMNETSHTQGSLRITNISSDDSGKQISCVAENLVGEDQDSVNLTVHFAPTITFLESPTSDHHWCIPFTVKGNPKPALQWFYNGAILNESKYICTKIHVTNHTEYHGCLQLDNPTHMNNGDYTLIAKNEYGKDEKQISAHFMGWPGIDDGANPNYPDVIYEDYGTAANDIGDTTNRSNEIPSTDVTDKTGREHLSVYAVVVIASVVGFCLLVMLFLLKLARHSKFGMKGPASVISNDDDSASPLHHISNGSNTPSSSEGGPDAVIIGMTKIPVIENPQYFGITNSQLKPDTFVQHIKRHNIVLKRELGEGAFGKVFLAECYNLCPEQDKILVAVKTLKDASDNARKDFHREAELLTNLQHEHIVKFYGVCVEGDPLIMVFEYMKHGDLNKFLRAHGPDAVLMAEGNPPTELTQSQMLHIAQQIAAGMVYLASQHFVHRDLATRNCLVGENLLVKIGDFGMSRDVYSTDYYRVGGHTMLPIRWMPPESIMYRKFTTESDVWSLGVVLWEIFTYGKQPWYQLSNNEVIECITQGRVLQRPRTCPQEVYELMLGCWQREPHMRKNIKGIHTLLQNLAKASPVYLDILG
Excerpt: as §1

ZIPK = target: T25, ZIPK (Homo sapiens, UniProt O43293); test: Eurofins Kinase Profiler panel; settings: read-out: % inhibition (1μM), DMSO control=100%, lower=stronger
T25 construct: purchased Eurofins Pharma Discovery Services UK Limited (Kinase Profiler screening platform)
Excerpt: as §1

CaMKK2 = target: T26, CaMKK2 (Homo sapiens, UniProt Q96RR4); test: Eurofins Kinase Profiler panel; settings: read-out: % inhibition (1μM), DMSO control=100%, lower=stronger
T26 construct: purchased Eurofins KinaseProfiler (Eurofins Pharma Discovery Services UK, Dundee); JAK3 also ChemPartner
Excerpt: as §1

SAPK3 = target: T27, SAPK3 (Homo sapiens, UniProt P53778); test: Eurofins Kinase Profiler panel; settings: read-out: % inhibition (1μM), DMSO control=100%, lower=stronger
T27 construct: purchased Eurofins KinaseProfiler (Eurofins Pharma Discovery Services UK, Dundee); JAK3 also ChemPartner
Excerpt: as §1

SGK = target: T28, SGK (Homo sapiens, UniProt O00141); test: Eurofins Kinase Profiler panel; settings: read-out: % inhibition (1μM), DMSO control=100%, lower=stronger
T28 construct: purchased Eurofins KinaseProfiler (Eurofins Pharma Discovery Services UK, Dundee); JAK3 also ChemPartner
Excerpt: as §1

CaMKI = target: T29, CaMKI (Homo sapiens, UniProt Q14012); test: Eurofins Kinase Profiler panel; settings: read-out: % inhibition (1μM), DMSO control=100%, lower=stronger
T29 construct: purchased Eurofins KinaseProfiler (Eurofins Pharma Discovery Services UK, Dundee); JAK3 also ChemPartner
Excerpt: as §1

TBK1 = target: T30, TBK1 (Homo sapiens, UniProt Q9UHD2); test: Eurofins Kinase Profiler panel; settings: read-out: % inhibition (1μM), DMSO control=100%, lower=stronger
T30 construct: purchased Eurofins Pharma Discovery Services UK Limited (Kinase Profiler screening platform)
Excerpt: as §1

CDK7 = target: T31, CDK7 (Homo sapiens, UniProt P50613); test: Eurofins Kinase Profiler panel; settings: read-out: % inhibition (1μM), DMSO control=100%, lower=stronger
T31 construct: purchased Eurofins KinaseProfiler (Eurofins Pharma Discovery Services UK, Dundee); JAK3 also ChemPartner
Excerpt: as §1

DDR1 = target: T32, DDR1 (Homo sapiens, UniProt Q08345); test: Eurofins Kinase Profiler panel; settings: read-out: % inhibition (1μM), DMSO control=100%, lower=stronger
T32 construct: purchased Eurofins KinaseProfiler (Eurofins Pharma Discovery Services UK, Dundee); JAK3 also ChemPartner
Excerpt: as §1

Src = target: T33, Src (Homo sapiens, UniProt P12931); test: Eurofins Kinase Profiler panel; settings: read-out: % inhibition (1μM), DMSO control=100%, lower=stronger
T33 construct: purchased Eurofins KinaseProfiler (Eurofins Pharma Discovery Services UK, Dundee); JAK3 also ChemPartner
Excerpt: as §1

Rsk2 = target: T34, Rsk2 (Homo sapiens, UniProt P51812); test: Eurofins Kinase Profiler panel; settings: read-out: % inhibition (1μM), DMSO control=100%, lower=stronger
T34 construct: purchased Eurofins KinaseProfiler (Eurofins Pharma Discovery Services UK, Dundee); JAK3 also ChemPartner
Excerpt: as §1

PKA = target: T35, PKA (Homo sapiens, UniProt P17612); test: Eurofins Kinase Profiler panel; settings: read-out: % inhibition (1μM), DMSO control=100%, lower=stronger
T35 construct: purchased Eurofins KinaseProfiler (Eurofins Pharma Discovery Services UK, Dundee); JAK3 also ChemPartner
Excerpt: as §1

PKCζ = target: T36, PKCζ (Homo sapiens, UniProt Q05513); test: Eurofins Kinase Profiler panel; settings: read-out: % inhibition (1μM), DMSO control=100%, lower=stronger
T36 construct: purchased Eurofins KinaseProfiler (Eurofins Pharma Discovery Services UK, Dundee); JAK3 also ChemPartner
Excerpt: as §1

Pim-1 = target: T37, Pim-1 (Homo sapiens, UniProt P11309); test: Eurofins Kinase Profiler panel; settings: read-out: % inhibition (1μM), DMSO control=100%, lower=stronger
T37 construct: purchased Eurofins Pharma Discovery Services UK Limited (Kinase Profiler screening platform)
T37 sequence (P11309 whole entry): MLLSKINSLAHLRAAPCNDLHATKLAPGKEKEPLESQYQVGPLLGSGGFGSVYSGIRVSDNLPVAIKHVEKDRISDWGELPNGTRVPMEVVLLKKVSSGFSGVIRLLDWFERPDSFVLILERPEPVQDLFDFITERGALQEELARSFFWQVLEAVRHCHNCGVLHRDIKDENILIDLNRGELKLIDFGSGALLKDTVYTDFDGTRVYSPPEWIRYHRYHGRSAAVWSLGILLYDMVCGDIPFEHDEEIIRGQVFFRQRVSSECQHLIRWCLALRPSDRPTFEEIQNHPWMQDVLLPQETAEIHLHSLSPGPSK
Excerpt: as §1

Ret = target: T38, Ret (Homo sapiens, UniProt P07949); test: Eurofins Kinase Profiler panel; settings: read-out: % inhibition (1μM), DMSO control=100%, lower=stronger
T38 construct: purchased Eurofins KinaseProfiler (Eurofins Pharma Discovery Services UK, Dundee); JAK3 also ChemPartner
Excerpt: as §1

CaMKIIβ = target: T39, CaMKIIβ (Homo sapiens, UniProt Q13554); test: Eurofins Kinase Profiler panel; settings: read-out: % inhibition (1μM), DMSO control=100%, lower=stronger
T39 construct: purchased Eurofins KinaseProfiler (Eurofins Pharma Discovery Services UK, Dundee); JAK3 also ChemPartner
Excerpt: as §1

PAK4 = target: T40, PAK4 (Homo sapiens, UniProt O96013); test: Eurofins Kinase Profiler panel; settings: read-out: % inhibition (1μM), DMSO control=100%, lower=stronger
T40 construct: purchased Eurofins Pharma Discovery Services UK Limited (Kinase Profiler screening platform)
Excerpt: as §1

PKCθ = target: T41, PKCθ (Homo sapiens, UniProt Q04759); test: Eurofins Kinase Profiler panel; settings: read-out: % inhibition (1μM), DMSO control=100%, lower=stronger
T41 construct: purchased Eurofins KinaseProfiler (Eurofins Pharma Discovery Services UK, Dundee); JAK3 also ChemPartner
Excerpt: as §1

BLK = target: T42, BLK (Homo sapiens, UniProt P51451); test: Cys-containing kinase family panel (EurofinsCerep)
T42 construct: EurofinsCerep (contract assay service)

[1] = read-out: % inhibition (1μM), 1 µM, DMSO control=100%, lower=stronger

What does the source list for C=CC(=O)N[C@@H]1CCCN(c2ncnc3[nH]ccc23)C1 [RB1]?
activity at 1 µM (ALK): 100%; activity at 1 µM (IR): 114%; inhibition at 1 µM (BTK): -0.95%; activity at 1 µM (KDR): 96%; IC50 (CLK2; estimated): > 800 nM; activity at 1 µM (CLK2; [1]): 18%; activity at 1 µM (Mer): 68%; activity at 1 µM (DYRK1B): 86%; activity at 1 µM (SAPK2b): 103%; activity at 1 µM (SAPK4): 95%; activity at 1 µM (Syk): 104%; activity at 1 µM (Wee1): 90%; activity at 1 µM (CDK9): 101%; activity at 1 µM (TAO1): 70%; activity at 1 µM (Flt1): 93%; activity (CK1): 82%; activity at 1 µM (Pim-2): 98%; activity at 1 µM (PDGFRα): 96%; IC50 (PKG1α; estimated): > 800 nM; activity at 1 µM (PKG1α; [1]): 23%; activity at 1 µM (ROCK-II): 88%; activity at 1 µM (TrkA): 46%; activity at 1 µM (ROCK-I): 88%; activity at 1 µM (GSK3α): 82%; activity at 1 µM (CDK6): 100%; activity at 1 µM (TrkC): 75%; activity at 1 µM (TrkB): 38%; activity at 1 µM (ZIPK): 107%; activity at 1 µM (CaMKK2): 101%; activity at 1 µM (SAPK3): 94%; activity at 1 µM (SGK): 92%; activity at 1 µM (CaMKI): 96%; activity at 1 µM (TBK1): 96%; activity at 1 µM (CDK7): 95%; activity at 1 µM (DDR1): 75%; activity at 1 µM (Src): 102%; activity at 1 µM (Rsk2): 76%; activity at 1 µM (PKA): 85%; activity at 1 µM (PKCζ): 106%; activity at 1 µM (Pim-1): 62%; activity at 1 µM (Ret): 86%; activity at 1 µM (CaMKIIβ): 85%; activity at 1 µM (PAK4): 81%; activity at 1 µM (PKCθ): 80%; inhibition at 1 µM (BLK): 8.35%
